Here are results for one substance from PMC4427575, “Functional screening system for yeast-secreted peptides acting on G-protein coupled receptors” (AMB Express, 2015).

The subject of the experiment is class A GPCR SST receptor. As to the kind of experiment: Effect of FLAG fusion on somatostatin (data not shown). Conditions: result in words.

Turning to “somatostatin with FLAG fusion: FLAG fusion of somatostatin, endogenous circular peptide agonist acting on class A GPCR SST receptor”, the “effect of the FLAG fusion” value is reported as “beneficial effect”.
